From patent publication US10143681B2, “Factor XIa inhibitors” (MERCK SHARP & DOHME CORP., priority 2016, dated 2018)

Columns and labels:
human Factor XIa = human Factor XIa (Homo sapiens (Human), UniProt P03951); test: Factor XIa Assay; assay type: biochemical; settings: human Factor XIa 0.04 nM, 30 min pre-incubation at 25° C., substrate GPR-AFC; read-out: FXIa IC50
Method in brief: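 IC50 values were obtained from four-parameter log(inhibitor)-response fits of % inhibition, then converted to Ki using Cheng-Prusoff. GPR-AFC hydrolysis was read at 400/505 nm after 60 min at 25 °C.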

Human plasma kallikrein = Human plasma kallikrein (Homo sapiens (Human), UniProt P03952); test: Kallikrein Assay; assay type: biochemical; settings: purified Human plasma kallikrein 0.5 nM, substrate Acetyl-K-P-R-AFC; read-out: P. KLK IC50
Method in brief: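 Purified human plasma kallikrein (0.5 nM final) with Acetyl-K-P-R-AFC substrate ([…]) in pH 7.4 HEPES/NaCl/CaCl2/PEG buffer, room temperature or 37 °C; fluorescence rise read at 405/510 nm under linear conditions after enzyme–inhibitor equilibration. IC50 from four-parameter logistic fit; Ki via Cheng–Prusoff.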

[1] = Rat Pharmacokinetic Screening IV/PO; assay type: in vivo; settings: male; for clearance: plasma clearance, IV administration; for MRT / bioavailability: plasma; for MRT: mean residence time; for bioavailability: oral bioavailability, oral vs. IV dosing
Method: Plasma pharmacokinetic parameters for clearance (Cl), volume of distribution, mean residence time (MRT) and oral bioavailability (% F) were determined in rats from oral administration and IV administration studies. 4 male rats, typically weighing 225-260 gram, were fasted overnight prior to dosing. Compounds were prepared for oral and IV dosing by addition to a vehicle, depending on the dose used. For a typical preparation, 1 mg per mL (IV) or 1.5 mg per mL (oral) of test compound was added to vehicle comprised of 20% dimethyl sulfoxide (DMSO), 60% polyethylene glycol 400 (PEG400) and 20% water. IV formulation was administered to 2 rats via pre-cannulated jugular vein, and oral dosing was administered to 2 rats via oral gavage. Blood was collected by pre-cannulated artery, typically at predose, 2, 8, 15, 30 min, 1, 2, 4, 6, and 8 hr postdose for IV, and at predose, 15, 30 min, 1, 2, 4, 6, 8 hr for oral dosing. Samples were collected in K2EDTA tubes, stored on ice, and centrifuged. Plasma was transferred to a micro titer plate and stored at −70° C. until analysis. Plasma samples were extracted using protein precipitation and analyzed by liquid chromatography separation followed by mass spec detection (LC-MS/MS), using a standard curve for each compound. Plasma pharmacokinetic parameters were calculated for IV and oral dosing data by non-compartmental methods. Oral bioavailability was determined as the ratio of the dose-normalized plasma area under the curve (AUC) following oral dosing vs. IV dosing.

[2] = test system: Human plasma (intrinsic coagulation cascade); test: Activated Partial Thromboplastin Time (aPTT) Assay; settings: concentration that causes a 50% (1.5×) increase of clot time over vehicle
Method in brief: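 Inhibitors spiked into pooled citrated normal-donor human plasma (aPTT 28-40 seconds), run on automated coagulation analyzer: ellagic acid activation of Factor XII, then clot time after recalcification. Reported as concentration giving 50% (1.5×) prolongation over vehicle clot time.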

Chain of Human plasma kallikrein (P03952 391-638): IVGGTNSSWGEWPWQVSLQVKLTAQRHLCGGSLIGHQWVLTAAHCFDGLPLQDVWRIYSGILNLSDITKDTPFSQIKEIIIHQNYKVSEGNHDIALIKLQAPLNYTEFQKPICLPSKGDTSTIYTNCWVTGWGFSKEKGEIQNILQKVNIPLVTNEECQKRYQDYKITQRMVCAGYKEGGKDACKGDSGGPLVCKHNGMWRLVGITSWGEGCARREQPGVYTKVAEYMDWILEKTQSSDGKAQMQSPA
Chain of Human plasma kallikrein (P03952 20-390 partner): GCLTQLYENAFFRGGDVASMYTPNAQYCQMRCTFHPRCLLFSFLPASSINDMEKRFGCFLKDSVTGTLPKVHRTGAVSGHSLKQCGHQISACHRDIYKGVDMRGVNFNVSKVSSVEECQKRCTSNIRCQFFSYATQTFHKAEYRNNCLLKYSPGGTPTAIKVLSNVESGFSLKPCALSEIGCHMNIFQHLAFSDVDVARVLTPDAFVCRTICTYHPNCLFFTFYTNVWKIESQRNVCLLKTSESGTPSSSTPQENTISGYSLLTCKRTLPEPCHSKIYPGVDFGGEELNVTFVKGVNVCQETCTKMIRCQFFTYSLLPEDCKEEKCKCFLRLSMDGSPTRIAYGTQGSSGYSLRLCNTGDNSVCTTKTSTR
Chain of human Factor XIa (P03951 388-625): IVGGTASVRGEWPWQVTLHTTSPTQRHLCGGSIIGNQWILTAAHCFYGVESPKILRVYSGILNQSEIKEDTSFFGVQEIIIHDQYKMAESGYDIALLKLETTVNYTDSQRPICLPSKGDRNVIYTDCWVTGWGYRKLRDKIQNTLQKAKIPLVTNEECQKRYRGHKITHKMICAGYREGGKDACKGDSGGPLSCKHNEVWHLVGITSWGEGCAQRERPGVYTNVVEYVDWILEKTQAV
Chain of human Factor XIa (P03951 19-387 partner): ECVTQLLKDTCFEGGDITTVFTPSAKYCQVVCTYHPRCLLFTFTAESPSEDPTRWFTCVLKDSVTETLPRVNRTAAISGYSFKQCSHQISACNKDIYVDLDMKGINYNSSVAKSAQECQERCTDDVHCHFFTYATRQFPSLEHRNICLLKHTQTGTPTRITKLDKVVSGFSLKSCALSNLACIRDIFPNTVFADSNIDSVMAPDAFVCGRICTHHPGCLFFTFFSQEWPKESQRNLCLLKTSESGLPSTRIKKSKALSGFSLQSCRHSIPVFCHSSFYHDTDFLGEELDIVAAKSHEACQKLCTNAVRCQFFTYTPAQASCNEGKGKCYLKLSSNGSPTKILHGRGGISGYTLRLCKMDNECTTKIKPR

Compound | IC50 (human Factor XIa) [nM] | IC50 (Human plasma kallikrein) [nM] | clearance [1] [mL/min/kg] | MRT [1] [h] | bioavailability [1] [%] | aPTT (1.5x) [2] [µM]
O=C(O)c1ccc(NC(=O)[C@H](CC2CC2)c2ccc(-c3c(C(F)F)ccc(Cl)c3F)c[n+]2[O-])cc1 (mixture of isomers) [Example 23, (S)- and (R)-2-(1-((4-carboxyphenyl)amino)-3-cyclopropyl-1-oxopropan-2-yl)-5-(3-chloro-6-(difluoromethyl)-2-fluorophenyl)pyridine 1-oxide] | 0.9 | 22 | 1.9 | 2.9 | 89 | 
O=C(O)c1ccc(NC(=O)[C@H](CC2CCC2)c2ccc(-c3c(C(F)F)ccc(Cl)c3F)c[n+]2[O-])cc1 (mixture of isomers) [Example 4, (S)- and (R)-2-(1-((4-Carboxyphenyl)amino)-3-cyclobutyl-1-oxopropan-2-yl)-5-(3-chloro-6-(difluoromethyl)-2-fluorophenyl)pyridine 1-oxide] | 0.36 | 4.7 | 5.1 | 2.5 | 34 | 
O=C(O)c1ccc(NC(=O)[C@H](CC2CC2)c2ccc(-c3c(OC(F)F)ccc(Cl)c3F)c[n+]2[O-])cc1 (single isomer, unassigned) [Example 2] |  | 79 | 5 | 2.5 | 56 | 1.16
O=C(O)c1ccc(NC(=O)C(CC2CCC2)c2ccc(-c3c(OC(F)F)ccc(Cl)c3F)c[n+]2[O-])cc1 (single isomer, unassigned) [Example 15, (R)- or (S)-4-[(2-{5-[3-chloro-6-(difluoromethoxy)-2-fluorophenyl]-1-oxidopyridin-2-yl}-3-cyclobutylpropanoyl)amino] benzoic acid] | 0.56 | 20 |  |  |  | 0.75

The next lines start with results.

IC50 (human Factor XIa) [nM] | IC50 (Human plasma kallikrein) [nM] | clearance [1] [mL/min/kg] | MRT [1] [h] | bioavailability [1] [%] | Compound | aPTT (1.5x) [2] [µM]
 | 14.5 | 12.1 | 2.3 | 70 | O=C(O)c1ccc(NC(=O)C(CC2CC2(F)F)c2ccc(-c3c(C(F)F)ccc(Cl)c3F)c[n+]2[O-])cc1 (single isomer, unassigned) [Example 76, 2-(1-((4-carboxyphenyl)amino)-3-(2,2-difluorocyclopropyl)-1-oxopropan-2-yl)-5-(3-chloro-6-(difluoromethyl)-2-fluorophenyl)pyridine 1-oxide] | 0.72
0.38 |  | 4.3 | 2.6 | 63 | C[C@H]1C[C@@H]1C[C@@H](C(=O)Nc1ccc(C(=O)O)cc1)c1ccc(-c2c(OC(F)F)ccc(Cl)c2F)c[n+]1[O-] (single isomer, unassigned) [Example 55] | 0.53
0.4 | 6 |  |  |  | O=C(O)c1ccc(NC(=O)C(CC2CC2CF)c2ccc(-c3c(C(F)F)ccc(Cl)c3F)c[n+]2[O-])cc1 (single isomer, unassigned) [Example 94, 2-(1-((4-carboxyphenyl)amino)-3-(2-(fluoromethyl)cyclopropyl)-1-oxopropan-2-yl)-5-(3-chloro-6-(difluoromethyl)-2-fluorophenyl)pyridine 1-oxide] | 0.4
